Measurements published in ChEMBL document CHEMBL3507680, “University of Dundee, Gates Library screen for HepG2 cell viability”.

Assay: Human HepG2 cell viability assay in 384 well format
Type: toxicity, cell-based
Set-up: dose 125 nL, time 70.5 hour; cytotoxicity at 70.5 h: concentration not given beside the values
Conditions: HepG2 cells, read-out: Inhibition

Compound	cytotoxicity at 70.5 h [%]
CC(C)c1noc(CN2CCN(C(=O)c3cc(Cl)ccc3F)CC2)n1	-8.7
O=C1CC(c2ccccc2)c2snc(C(=O)O)c2N1 (stereo not given)	24.7
CNC(=O)C1(Cc2cc(C(C)C)no2)CCN(Cc2ccccn2)C1 (stereo not given)	-0.0563
Cc1nccc(C2CCCCN2Cc2ccc(F)cc2)n1 (stereo not given)	10.1
Cc1nc(-c2ccccc2C)n(CC(=O)NC(C)C2CC2)n1 (stereo not given)	-5.7
CCCC1CN(CCOC)C(=O)c2cccnc2O1 (stereo not given)	-8.12
CS(=O)(=O)N1CC[C@]2(O)CCN(c3ccnc(N)n3)C[C@@H]2C1	-0.327
CC(C)CCN1C(=O)CC(N(C)Cc2nc3ccccc3c(=O)[nH]2)C1=O (stereo not given)	-6.43
CCn1cnnc1CNC(=O)N1CCN(c2cccs2)CC1	25.1
CNC(=O)C(C)(C)CNC(=O)Nc1cc(C)ccn1	-7.88
Cc1cc(CS(=O)(=O)N(C)C(C)c2ccc(F)cc2)on1 (stereo not given)	-7.52
CNC(=O)c1cccc(CN2CCC(N(C)Cc3nnc(C)o3)C2)c1 (stereo not given)	-6.28
CCC(CC)N(Cc1cc(=O)n(C)c(=O)n1C)C1CC1	5.26
Cc1ccccc1-c1cc(NC(=O)NC2CCC(O)CC2)n(CCO)n1 (stereo not given)	-3.45
CN(C)CCNC(=O)c1ccc(OC2CCN(C3CCC3)CC2)c(Cl)c1	-5.59
CCc1nc(C2CCCN2C(=O)C2=COCC2)no1 (stereo not given)	6.98
O=C1CCCCN1CCc1nc(-c2cccnn2)no1	-2.5
Cc1cc(NCc2ccc(CS(N)(=O)=O)cc2)nc(C)n1	-12.6
CC1(C)CN=C(N2CCN(CC3CCCO3)CC2)S1 (stereo not given)	-7.36
O=C(CC1CN(Cc2ccccc2)CCO1)NC1CCSCC1 (stereo not given)	3.03
CNC(=O)CCS(=O)(=O)Cc1cc(Cl)c2c(c1)OCCO2	-3.97
CCOc1ccccc1CNC(=O)N1CCC(Cc2cnn(C)c2)C1 (stereo not given)	7.83
CC(c1cc(F)ccc1F)N1CCN(C(=O)c2ccc(=O)[nH]c2)CC1 (stereo not given)	-1.22

Compound	cytotoxicity at 70.5 h [%]
Cc1ccc(S(=O)(=O)NC[C@H]2OC[C@@H](NCc3ccncc3)[C@@H]2O)cc1	-8.05
CNCc1ccc([C@@H]2CN(C(C)=O)C[C@H]2C(N)=O)cc1	-7.99
COc1nc(C)ccc1CNC(=O)NC(C)Cc1c(C)nn(C)c1C (stereo not given)	-9.98
O=S(=O)(c1cncc(F)c1)N1CCC2(CCCCC2)C1	-13
CCCOC(C)Cn1ccc2[nH]c(=O)c(C#N)cc2c1=O (stereo not given)	10.5
COc1ncccc1NC(=O)N1CCC(C(=O)NC(C)C)CC1	-5.13
CC(=O)c1cc(C(=O)N2CCC3(CC2)Nc2ccccc2NC3=O)cs1	-7.09
Cc1cccc(CN2CCc3ncnc(C4CC4)c3CC2)n1	5.72
Cn1ncc2c(N3CC(N4CCCCC4)C3)nc(C3CCCC3)nc21	-4.55
C[C@H](NC(=O)OC(C)(C)C)c1nnc(S(=O)(=O)Cc2cccc(F)c2)o1	-6.88
Cc1cnn(CCNCc2c(C)nn(Cc3ccccc3)c2C)c1	23.6
Cc1cccc(Nc2noc3c2CN(C(=O)c2ccn(C)n2)CC3)c1C	3.73
CC(=O)c1ccc(N2CCC(CO)(CCOc3ccccc3)CC2)nc1	-11
CS(=O)(=O)Cc1ccccc1NCc1cc(Cl)ccc1Cl	3.86
Cc1nc(NS(=O)(=O)c2cc(C)c(Br)cc2C)no1	-14.1
CNC(=O)c1cc2c(nc1NCC(C)C)CCN(C)CC2	0.255
O=C(c1cnn[nH]1)N(Cc1ccncc1)CC1CCCO1 (stereo not given)	-0.844
Cn1nc(CN2CCCC2)c2c1CN(C(=O)c1ccncc1F)CC2	-3.12
CCOc1ccccc1C(CC(=O)Nc1ccc(C)cn1)NC(C)=O (stereo not given)	-9.08
CCc1nc(COc2ccc(N(C)C(C)=O)cc2)no1	26
CCn1c(CNC(=O)Nc2nc(C)c(C)o2)nc2ccccc21	14.3
NC(c1ccccc1)c1ccc(OC(F)F)cc1 (stereo not given)	6.42
CN(C)CCCNC(=O)c1cnc(Cc2ccc(F)cc2)s1	-6.21

Compound	cytotoxicity at 70.5 h [%]
COCC(=O)N1CCCC1c1nccnc1Nc1ncccn1 (stereo not given)	-3.81
Cc1ncsc1CN1C[C@@H]2CCCO[C@@H]2[C@H](Nc2ccccn2)C1	-4.96
CCN(C)S(=O)(=O)N1CCCC(c2cccc(C(=O)O)c2)C1 (stereo not given)	-8.54
O=C(c1cscn1)N1CCc2ncc(CN3CCOCC3)n2CC1	-15.7
Cc1cccc(N2Cc3c(NC4CCCC4)ncnc3N(C)CC2=O)c1	-4.33
CCc1ccc(CN(C)c2cc(COC)nc3ccnn23)cc1	-2.38
CN1CCCN(C(=O)c2cnsn2)c2cc(Cl)ccc21	-13.8
CN(CCCOc1ccccc1)C(=O)CN1CCc2cncnc2C1	8.28
COCC(=O)NCC1Cn2nnc(-c3ccncc3)c2CO1 (stereo not given)	-3.5
COCCN1CC[C@@H](OC)[C@@H]1Cc1ccccc1	15.6
COCCc1noc(CN2CCCC(Cn3cncn3)C2)n1 (stereo not given)	-7.84
CN(C1CCN(c2ccccn2)CC1)S(=O)(=O)c1ccccc1F	-3.26
CCn1cc2c(n1)C(COC)CN(Cc1ccoc1)C2 (stereo not given)	-15.1
CCN1CCC(CC(=O)NCc2cc(C)nn2C)CC1	-4.69
COc1cc2ccn(CCS(C)(=O)=O)c(=O)c2cc1F	-2.4
COc1c(F)ccc(C(=O)N2CC[C@H](CO)[C@@H](O)C2)c1F	-3.48
CN(C)c1ccc(CNC(=O)NCCc2cccs2)cn1	-12.3
Cc1noc(C)c1C(=O)NCCN1CCOCC1	1.59
O=C(O)[C@]12CCCN(Cc3ccoc3)C[C@H]1CN(c1ncccn1)C2	-6.33
O=C([C@H]1CC[C@@H]2[C@@H](CCN2C2CCCC2)O1)N1CCOCC1	-12.8
O=C(Nc1cccnc1-n1cc(Cl)cn1)C1CC1	-27.5
O=C1CC(c2ccncc2)C2(CCN(C(=O)c3cccs3)CC2)N1 (stereo not given)	43.8
Cc1nc(CN2C[C@H]3C[C@H](C(=O)NCC4CC4)N(C)[C@H]3C2)cs1	9.54

Compound	cytotoxicity at 70.5 h [%]
CCOCC1c2c(ncn2C(C)C)CCN1C(C)C (stereo not given)	-7.26
Cc1cccc(NS(=O)(=O)c2cc(C(=O)O)oc2C)c1Cl	1.03
Cc1nc(C)n(CC2CCCN2CCOc2ccc(C#N)cc2)n1 (stereo not given)	6.36
CC(C)NC(=O)[C@H]1C[C@@H]2[C@@H](C1)OCCN2Cc1ccco1	-8.12
COc1ccc(-c2noc([C@@H]3C[C@@H](O)CN3C3CCN(C)CC3)n2)cc1	-2.03
Cc1csc(N2CCN(CC(=O)NCc3ccccn3)CC2C)n1 (stereo not given)	-13.9
COc1cccc(N2CCC(CNc3cc(C)nc4ncnn34)C2)c1 (stereo not given)	-1.68
CC[S+](CC)[c-]1c(=O)[nH]c(=O)n(Cc2ccc(F)cc2)c1=O	3.21
FC(F)(F)c1nc(NC2CCCC2)c2ccccc2n1	-12.8
O=C(NCCNc1ncccn1)N1CCN(Cc2cccnc2)CC1	21.2
Cc1ncsc1CNCC(C)c1nc2ccccc2o1 (stereo not given)	-7.51
CCc1nccn1C1CCCN(C(=O)c2csc(NC(C)=O)n2)C1 (stereo not given)	-16.5
CCN1CCC(NC(=O)CN2CCc3c(nc(C4CC4)n3C)C2)CC1	-10.9
COc1cc(CNCc2c(C)nn(C)c2N(C)C)ccc1C	-3.16
CC(C)NC(=O)C1(Cc2ccccc2-c2cccs2)CCNC1 (stereo not given)	-3.31
CN1CCC(NN2CCN(C)CC2)CC1	-17.5
OC1CCN(c2nc(-c3ccccc3)no2)CC1	-11.6
Cc1nn(Cc2ccc(C(=O)NCCCN3CCOCC3)o2)c(C)c1Cl	24.8
CN1C(=O)CCCC12CCCN(C(=O)c1ccoc1)C2 (stereo not given)	-10.6
CN1CCN(Cc2ccccc2Oc2ccc(C(N)=O)cn2)CC1	-6.47
Cc1cnc2n(c1=O)C(CC(=O)NCc1ccc(F)cc1)CS2 (stereo not given)	-6.08
Cc1cccc(=O)n1CCCNc1nc(N(C)C)nc2c1CCNCC2	-3.24
O=C(C1CCCN(CCc2ccc3c(c2)CCO3)C1)N1CCCC1 (stereo not given)	44.9

Compound	cytotoxicity at 70.5 h [%]
Cn1cc(CN2CCC(c3ncc(Cl)cc3S(C)(=O)=O)CC2)cn1	-6.32
Cc1nc2c(c(N(C)C)n1)CCN(C(=O)CN1CCC(O)CC1)C2	-6.35
CC1(COc2ccccc2)NCCc2[nH]cnc21 (stereo not given)	-2.27
C[S+]([O-])CCNC(=O)Nc1cc(F)ccc1-n1cccn1 (stereo not given)	15.9
C[S+]([O-])c1nncn1CC(=O)c1ccc2c(c1)CCO2 (stereo not given)	-2.98
COc1ccccc1CN(Cc1cccs1)S(=O)(=O)N(C)C(C)C	-2.73
Cc1cc(C)c2c(NCCC34CCCN3CCC4)ncnc2n1	-3.78
CCN(Cc1cc(F)ccc1Cl)C1CCS(=O)(=O)C1 (stereo not given)	29.9
COc1cccc(CNc2c(O)c(=O)c2=O)c1	-20.2
CN1C(=O)CC(c2ccccc2)C12CCN(C(=O)c1ccc[nH]1)CC2 (stereo not given)	-4.56
Cc1nc2c(c(C)c1CC(=O)NCc1ccc(F)cc1)c(=O)[nH]n2C	21.3
O=C(CCc1ccc(-c2ccccc2)[nH]1)N1CCCC(n2ccnc2)C1 (stereo not given)	-1.63
O=S(=O)(NCCCn1cccn1)c1ccc2c(c1)CCC2	-5.82
Cn1ncc(NC(=O)Cn2cc(-c3ccc(F)cn3)cn2)n1	-10.2
CC(C)c1ccc(NC2CCCN(Cc3ccncc3)C2)cc1 (stereo not given)	0.778
COCC(=O)N1CCCC(C(=O)N(C)CCn2ccnc2C)C1 (stereo not given)	3.1
O=S(=O)(NCCNc1ccc(-n2cccc2)nn1)c1ccccc1	-5.01
Cc1ncc(C(=O)N2CC[C@@]3(O)CCN(C(=O)N(C)C)C[C@H]3C2)cn1	-12.2
NC(=O)CN(Cc1ncc(-c2ccc(Cl)cc2)o1)C1CCCC1	-7.75
Cc1cccc(N2CCC(NCc3cnc(C4CCC4)s3)CC2)n1	3.13
COCC1CCN(S(=O)(=O)NCC2COc3ccccc3C2)CC1 (stereo not given)	13.9
Cc1cc(NCc2ccc(CO)cc2)n2nc(C)cc2n1	-0.853
COC(=O)NCC(=O)N1CCCC(c2ncc[nH]2)C1 (stereo not given)	-27.3
